Experimental data as given in ChEMBL document CHEMBL3612065, “Development of N-hydroxybenzamide derivatives with indole-containing cap group as histone deacetylases inhibitors” (Bioorg Med Chem, 2015).

Experiments:
[1] = Inhibition of Class 1 histone deacetylase isolated from human HeLa cell nuclear extracts using Boc-Lys (acetyl)-AMC as substrate preincubated for 10 mins followed by substrate addition measured after 30 mins by fluorescence assay; format: cell-based
[2] = test system: HeLa; assay: Potency index, ratio of SAHA IC50 to compound IC50 for Class 1 histone deacetylase isolated from human HeLa cell nuclear extracts; format: cell-based
[3] = test system: HEL; assay: Cytotoxicity against human HEL cells assessed as growth inhibition after 48 hrs by MTT assay; format: functional, cell-based
[4] = test system: K562; assay: Cytotoxicity against human K562 cells assessed as growth inhibition after 48 hrs by MTT assay; format: functional, cell-based; settings: K562, 48 h
[5] = test system: U-937; assay: Cytotoxicity against human U937 cells assessed as growth inhibition after 48 hrs by MTT assay; format: functional, cell-based; settings: U-937, 48 h
[6] = Cytotoxicity against human U266 cells assessed as growth inhibition after 48 hrs by MTT assay; format: functional, cell-based; settings: U-266, 48 h
[7] = test system: HCT-116; assay: Cytotoxicity against human HCT116 cells assessed as growth inhibition after 48 hrs by MTT assay; format: functional, cell-based; settings: HCT-116, 48 h
[8] = test system: PC-3; assay: Cytotoxicity against human PC3 cells assessed as growth inhibition after 48 hrs by MTT assay; format: functional, cell-based; settings: PC-3, 48 h
[9] = test system: PC-3; assay: Inhibition of Class 1 histone deacetylase in human PC3 cells using Boc-Lys (acetyl)-AMC as substrate preincubated for 3 hrs followed by substrate addition measured after 3 hrs by fluorescence assay; format: cell-based
[10] = test system: HeLa; assay: Ratio of IC50 for Class 1 histone deacetylase in human PC3 cells to IC50 for Class 1 histone deacetylase isolated from human HeLa cell nuclear extracts
[11] = test system: PC-3; assay: Inhibition of Class 2a histone deacetylase in human PC3 cells using Boc-Lys (triflouroacetyl)-AMC as substrate preincubated for 3 hrs followed by substrate addition measured after 3 hrs by fluorescence assay; format: cell-based
[12] = test system: PC-3; assay: Selectivity ratio of IC50 for Class 2a histone deacetylase in human PC3 to IC50 for Class 1 histone deacetylase in human PC3 cells; format: cell-based

Compound	IC50 [1] [nM]	also measured
O=C(NO)c1ccc(NC(=O)[C@H](Cc2c[nH]c3ccccc23)NC(=O)c2ccncc2)cc1	100	–
O=C(NO)c1ccc(NC(=O)[C@H](Cc2c[nH]c3ccccc23)NC(=O)c2ccc(Br)cc2)cc1	3.7	–
CC(C)=CC(=O)N[C@@H](Cc1c[nH]c2ccccc12)C(=O)Nc1ccc(C(=O)NO)cc1	139	–
O=C(NO)c1ccc(NC(=O)[C@H](Cc2c[nH]c3ccccc23)NC(=O)c2cc(Cl)cc(Cl)c2)cc1	41.2	–
CC(C)(C)OC(=O)N[C@H](C(=O)Nc1ccc(C(=O)NO)cc1)c1ccccc1	123	–
O=C(NO)c1ccc(NC(=O)[C@H](Cc2c[nH]c3ccccc23)NC(=O)c2ccc3ccccc3c2)cc1	27	–
O=C(NO)c1ccc(NC(=O)[C@H](Cc2c[nH]c3ccccc23)NC(=O)c2ccc(C(F)(F)F)cc2)cc1	30	–
O=C(NO)c1ccc(NC(=O)[C@H](Cc2c[nH]c3ccccc23)NC(=O)c2ccc(F)cc2)cc1	2.4	–
O=C(NO)c1ccc(NC(=O)[C@H](Cc2c[nH]c3ccccc23)NC(=O)c2ccc(Cl)cc2)cc1	1.5	Ratio IC50 [2]: 100; IC50 [3]: 1970 nM; IC50 [4]: 1.67 µM; IC50 [5]: 1090 nM; IC50 [6]: 1010 nM; IC50 [7]: 1450 nM; IC50 [8]: 740 nM; IC50 [9]: 33.2 nM; Ratio IC50 [10]: 22; IC50 [11]: 60.1 nM; Ratio IC50 [12]: 2
O=C(/C=C/c1ccc(OC[C@H](Cc2c[nH]c3ccccc23)NC(=O)c2ccc(Cl)cc2)cc1)NO	6.8	–
Cc1ccc(C(=O)N[C@@H](Cc2c[nH]c3ccccc23)C(=O)Nc2ccc(C(=O)NO)cc2)cc1	13	–
CC(C)C(=O)N[C@@H](Cc1c[nH]c2ccccc12)C(=O)Nc1ccc(C(=O)NO)cc1	526	–
CCCC(CCC)C(=O)N[C@@H](Cc1c[nH]c2ccccc12)C(=O)Nc1ccc(C(=O)NO)cc1	212	–
COc1cc(CCC(=O)Nc2ccc(C(=O)NO)cc2)ccc1OCc1cccs1	192	–
CC(=O)N[C@@H](Cc1c[nH]c2ccccc12)C(=O)Nc1ccc(C(=O)NO)cc1	425	–
CC(C)(C)OC(=O)N[C@@H](Cc1c[nH]c2ccccc12)C(=O)Nc1ccc(C(=O)NO)cc1	280	–
COc1ccc(C(=O)N[C@@H](Cc2c[nH]c3ccccc23)C(=O)Nc2ccc(C(=O)NO)cc2)cc1	8.6	–
CCC(CC)C(=O)N[C@@H](Cc1c[nH]c2ccccc12)C(=O)Nc1ccc(C(=O)NO)cc1	333	–
O=C(NO)c1ccc(NC(=O)[C@H](Cc2c[nH]c3ccccc23)NC(=O)c2cccc(Cl)c2)cc1	43.1	–
CN(C)c1ccc(C(=O)N[C@@H](Cc2c[nH]c3ccccc23)C(=O)Nc2ccc(C(=O)NO)cc2)cc1	4.7	–
O=C(NO)c1ccc(NC(=O)[C@H](Cc2c[nH]c3ccccc23)NC(=O)c2ccc(Cl)cc2Cl)cc1	23.3	–

The next lines start with results.

IC50 [1] [nM]	Compound	also measured
47.5	O=C(Cc1ccccc1)N[C@@H](Cc1c[nH]c2ccccc12)C(=O)Nc1ccc(C(=O)NO)cc1	–
23.8	O=C(NO)c1ccc(NC(=O)[C@H](Cc2c[nH]c3ccccc23)NC(=O)c2ccccc2)cc1	–
196	Cc1ccc(S(=O)(=O)N[C@@H](Cc2c[nH]c3ccccc23)C(=O)Nc2ccc(C(=O)NO)cc2)cc1	–
157	O=C(NO)c1ccc(NC(=O)[C@H](Cc2c[nH]c3ccccc23)NC(=O)c2ccccc2Cl)cc1	–
178	O=C(NO)c1ccc(NC(=O)[C@H](Cc2c[nH]c3ccccc23)NS(=O)(=O)c2ccccc2)cc1	–
1090	CCS(=O)(=O)N[C@@H](Cc1c[nH]c2ccccc12)C(=O)Nc1ccc(C(=O)NO)cc1	–
59.7	O=C(CCc1ccccc1)N[C@@H](Cc1c[nH]c2ccccc12)C(=O)Nc1ccc(C(=O)NO)cc1	–
98.7	O=C(CCCc1ccccc1)N[C@@H](Cc1c[nH]c2ccccc12)C(=O)Nc1ccc(C(=O)NO)cc1	–
31	O=C(NO)c1ccc(NC(=O)[C@H](Cc2c[nH]c3ccccc23)NC(=O)c2ccco2)cc1	IC50 [3]: 3360 nM; IC50 [4]: 4.56 µM; IC50 [5]: 3430 nM; IC50 [6]: 3760 nM; IC50 [7]: 2770 nM; IC50 [8]: 3340 nM; IC50 [9]: 333 nM; Ratio IC50 [10]: 11; IC50 [11]: 665 nM; Ratio IC50 [12]: 2
